Patent US20060154236A1, “Computer-assisted analysis” (priority 2004, published 2006)
Read-outs that look alike come from different tables or passages of the source. Residues, ends and D or L forms follow the SMILES beside them. *: point of attachment. Cbz = O=C(OCc1ccccc1)*

What was measured:
p53 and cFos = test: Single-cell analysis of nuclear p53 vs cFos intensity; assay type: cell-based, human; conditions: HeLa, 20 hrs, FIG. 34
Description: FIG. 34 is a single-cell analysis showing differing patterns of dose-dependent p53 and cFos responses to different drugs. A. Scatter plot of average nuclear p53 intensity vs. average cFos intensity in a typical control well and representative image. The bright cells at the top of the image are in mitosis. B. Dose-dependent increases in response to MG132 shown in heat maps are correlated in scatter plots and images (orange nuclei). C. Dose-dependent increases in response to camptothecin shown in heat maps are anti-correlated in scatter plots and images. The black (cFos) and green (p53) heat map values for the highest dose reflect the contribution of apoptotic cells with negligible p53 and cFos nuclear staining.
Extensions of cytological profiling to reflect dependencies among descriptors will allow more sophisticated analysis of drug responses at a systems level. For example, both p53 and cFos, a transcription factor involved in MAP-kinase signalling, are involved in cell stress responses, but the interrelationship of the p53 and MAP-kinase pathways is poorly understood (B. Kaina, Biochem Pharmacol 66:1547 (Oct. 15, 2003); incorporated herein by reference). […]

[1] = test system: HeLa (human cancer) cells; test: Cytological dose-response profiling by automated fluorescence microscopy (KS statistic z-scores, 93 descriptors); assay type: cell-based; conditions: for response of compound profile (heat plot): 13-point titration
Procedure: The known drug set was chosen to cover common mechanisms of toxicity or therapeutic action in cancer and other diseases, and to include several groups with a common target (macromolecule or pathway) but unrelated structures. We analyzed thirteen 3-fold dilutions of each drug, covering a final concentration range on cells from micromolar to picomolar. (Table 3 and Materials & Methods). HeLa (human cancer) cells were cultured in 384-well plates to near confluence, treated with drugs for 20 hrs, fixed, and stained with fluorescent probes for various cell components and processes. We chose 11 distinct probes that covered a range of cell biology, multiplexing a DNA stain and two antibodies per well (the probe sets are: (SC35, anillin), (α-tubulin, actin), (phospho-p38, phospho-ERK), (p53, cFos), (phospho-CREB, calmodulin)). Using automated fluorescence microscopy, we collected images of up to ˜8000 cells from each well. 26 wells on each plate were treated only with DMSO to generate a control population. The experiment was performed twice in parallel to provide a replicate dataset. Image segmentation procedures were used to automatically identify nuclei and nuclear organelles, and cytoplasmic regions were approximated as an annulus surrounding each identified nucleus (FIG. 31A). For each cell, region, and probe, a set of descriptors was measured. These included measures of size, shape, and intensity, as well as ratios of intensities between regions (93 descriptors total, Table S3).
For profiling studies, it is useful to reduce each population of descriptor values to a single number. […] We devised a measure based on the Kolmogorov-Smirnov (KS) statistic, allowing nonparametric comparison of experimental and control distributions from the same plate (FIGS. 31B and 35). […] In particular, the relationship between z-score and the original physical measure may be non-linear.
Cell culture. 20 hours before compound addition, Hela cells grown in […] dishes were trypsinized, resuspended in DMEM supplemented with 10% FCS and 10 ug/mL penicillin/streptomycin, and plated in 384-well plates at an initial density of 3,000 cells per well, 40 uL per well. Compounds were purchased from Sigma (St. Louis, MO), Calbiochem (EMD Biosciences, San Diego, Calif.) and Tocris (Elliksville, MO) and are listed in Table 2. Compound stocks were prepared in DMSO and then arrayed on 384-well plates in 16 consecutive 1:3 serial dilutions in DMSO as outlined in Table 3. The highest and two lowest dilutions (rows A, 0 and P) were not used for subsequent analysis as the wells due to persistent edge effects, leaving us with a series of 13 dilutions. Each stock was diluted 16-fold in warmed culture medium, and 8 μl of this solution was added to the plated cells, resulting in a 96-fold final dilution. All conditions were performed in duplicate in separate plates. Cells were incubated at 37° C. for 20 hours, then fixed in 3% formaldehyde in PBS. All liquid handling was performed using a programmed TekBench (TekCel, Hopkinton, Mass.).
Markers. Five sets of markers were stained by standard immunofluorescence methods in this study.

[2] = test system: HeLa (human cancer) cells; test: Hierarchical clustering of compound profiles by titration-invariant similarity score (TISS); assay type: cell-based
Description: When comparing drug mechanism, changes in specificity, and thus phenotype, are relevant but changes in affinity, and thus PEC, are not. […] We developed a titration-invariant similarity score (TISS) to allow comparison between dose-response profiles independent of starting dose.
Titration-invariant similarity score (TISS) for comparing descriptor and compound vectors. We developed a “titration-invariant” similarity score (TISS) to assess the similarity of compounds independent of the starting point of their titration series. The TISS between two compounds is calculated in three steps: (1) we define the notion of a titration sub-series for each compound to account for different possible starting concentrations (FIGS. 35 and 36B); (2) we define a correlation for pairs of these sub-series (FIG. 36B); (3) we define a similarity measure derived from the strongest correlation over a determined range of these sub-series (FIG. 36B).
(1) For each compound c, the complete set of z-scores across all descriptors and titrations defines a DxT-dimensional vector: Xc=(zc,l,l, . . . , zc,D,l, . . . , zc,l,T, . . . , zc,D,T), where D is the number of descriptors (=93) and T is the number of titrations (=13). In order to allow comparisons of compounds with different titration starting points, we define titration sub-series as follows: Xc(s)=(zc,l,l, . . . , zc,D,l, . . . , zc,l,T−s, . . . , zc,D,T−s) and Xc(−s)=(zc,l,s, . . . , zc,D,s, . . . , zc,l,T, . . . , zc,D,T). Intuitively, by truncating starting or ending titrations, these definitions allow us to “shift” the starting point for the titration series.
(2) For all compound vectors Xi and Xj, we define their s-correlation: xij(s)=<Xi, Xj>(s)=<Xi(s), Xj(−s)>/(∥Xi(s)∥ ∥Xj(−s)∥)
(we use the standard notation <A, B>=ΣiAiBi and ∥A∥^2=<A,A>). Thus, <Xi, Xj>(0) measures the standard correlation of vectors Xi and Xj, while <Xi, Xj>(1) drops the first titration for compound Xj and the last for Xi before measuring their correlation. For each s, we built a 200×200 such correlation matrix X(s)=(xij(s)) using all of the compounds from each of the two replicates.
(3) Given a range −S≦s≦S, we wish to look for the value of s that gives the highest correlation between two vectors.
Clustering compound and descriptor vectors. We performed standard hierarchical clustering of replicate-averaged compound (FIG. 33) or descriptor (FIG. 39) vectors using the pdist and linkage functions in Matlab. pdist was defined by the TISS for each pair of vectors. […] Compound 50 was not present in all datasets and so was also excluded.

transcription = test: Preliminary in vitro transcription experiments; assay type: biochemical
[3] = HeLa cells, 20 hrs, thirteen 3-fold dilutions, Y = profile response above signal threshold
[4] = unsupervised hierarchical clustering of the 61 responsive compounds

| Compound | Used in clustering (FIG. 33) [1, 3] | clustering of compound profile by TISS (FIG. 33) [2, 4] | response of compound profile (heat plot) ([1]; HeLa, 20 hrs) | further results |
| --- | --- | --- | --- | --- |
| CC[C@@]1(O)C(=O)OCc2c1cc1n(c2=O)Cc2cc3ccccc3nc2-1 [Compound 10, Camptothecin] | Y | – | – | relation of dose-dependent p53 and cFos responses in single cells (p53 and cFos): anti-correlated; anillin nuclear level ([1]; HeLa, 20 hrs, G2 arrested state): marked nuclear accumulation; total DNA content / cell cycle response ([1]; HeLa, 20 hrs, as drug concentration increases): arrest with S/G2 DNA content; apoptosis ([1]; HeLa, 20 hrs, at the highest concentrations): widely induced; p53 induction ([1]; HeLa, 20 hrs, concentrations sufficient to promote G2 arrest): much less so; p53 induction ([1]; HeLa, 20 hrs, high concentrations): strongly induced; p53 response (z-score heat plot) ([1]; HeLa, 20 hrs, low doses, FIG. 31C): statistically significant responses |
| CC(C)C[C@@H](C=O)NC(=O)[C@H](CC(C)C)NC(=O)[C@H](CC(C)C)NC(=O)OCc1ccccc1 [Compound 38, MG132] (Cbz-Leu-Leu-Leu-aldehyde) | Y | – | – | relation of dose-dependent p53 and cFos responses in single cells (p53 and cFos): increased correlated induction |
| Cn1cnc2c(NCc3ccccc3)nc(NCCO)nc21 [Compound 42, Olomucine] | Y | did cluster | – | – |
| CC(C)[C@H](CO)Nc1nc(Nc2cccc(Cl)c2)c2ncn(C(C)C)c2n1 [Compound 46, Purvalanol A] | Y | did cluster | – | – |
| CC[C@H](CO)Nc1nc(NCc2ccccc2)c2ncn(C(C)C)c2n1 [Compound 49, Roscovitine] | – | – | – | clustering of compound profile by TISS (FIG. 33) [2]: did cluster; Used in clustering (FIG. 33) [1]: Y |
| CC[C@H]1/C=C/C=C/C[C@@H](C)[C@H](O)[C@@](C)(O)C(=O)[C@@H](C)[C@H](O)[C@@H](C)C(=O)[C@@H](C)[C@H](O)[C@@H](C)/C=C/C(=O)O[C@@H]2[C@H](C)[C@H](CC1)O[C@]1(CC[C@H](C)[C@H](C[C@@H](C)O)O1)[C@H]2C [Compound 90, Oligomycin] | Y | – | – | – |
| COC(=O)Nc1nc2ccc(C(=O)c3cccs3)cc2[nH]1 [Compound 91, Nocodazole] | Y | – | – | – |
| NC(=O)NO [Compound 94, Hydroxyurea] | Y | clustered closely with their unblinded counterparts and compounds of similar reported mechanism | significant responses | – |
| CC[C@H]1CN2CCc3cc(OC)c(OC)cc3[C@@H]2C[C@@H]1C[C@H]1NCCc2cc(OC)c(OC)cc21 [Compound 96, Emetine] | Y | clustered closely with their unblinded counterparts and compounds of similar reported mechanism | significant responses | – |
| O=C(CCCCCN1C(=O)c2cccc3cccc(c23)C1=O)NO [Compound 97, Scriptaid] | Y | clustered closely with their unblinded counterparts and compounds of similar reported mechanism | significant responses | – |
| CC[C@H](C)[C@H]1NC(=O)[C@@H](NC(=O)[C@@H](CC(C)C)N(C)C(=O)[C@@H]2CCCN2C(=O)C(C)O)[C@@H](C)OC(=O)[C@H](Cc2ccc(OC)cc2)N(C)C(=O)[C@@H]2CCCN2C(=O)[C@H](CC(C)C)NC(=O)[C@@H](C)C(=O)[C@H](C(C)C)OC(=O)C[C@@H]1O (stereo partly drawn) [Compound 98, Didemnin B] | Y | clustered with ribosome inhibitors | – | – |
| CCCCCc1ccc(-c2ccc(/C=C/C(N)=O)cc2)nc1 [Compound 100, Concentramide] | Y | difficult to interpret | strong responses | – |
| Amanitin [Compound 3] | Y | – | – | – |
| Austocystin [Compound 99] | Y | clusters with transcription and translation inhibitors | strong responses | inhibition of transcription in vitro (transcription): inhibits transcription in vitro |
| Oxamflatin [Compound 78] | Y | – | – | – |
| Tunicamycin [Compound 55] | Y | – | – | – |
